{
  "source": "patent US9938240B2",
  "about": "“Fluorinated derivatives of 3-hydroxypyridin-4-ones” (Apotex Technologies Inc., priority 2009, dated 2018)",
  "tested_on": "SV-NRA cells",
  "assay": "MPP+ treated SV-NRA cell viability (MTT)",
  "format": "cell-based",
  "conditions": "5 mM MPP+ treated SV-NRA cells, 20 μM, 24 h, p<0.05",
  "description": "SV-NRAs cells were plated in a 96-well plate at a density of 10,000 cells/well in 100 μL of DME […], high glucose 1× liquid (Sigma) supplemented with 10% heat-inactivated FBS and 1× antibiotic/antimycotic solution (Sigma). On the next day, the cells were washed with EMEM media (Eagle's minimal essential media; phenol red, serum and glutamine free) and treated for 24 h with 5 mM MPP^+ (1-methyl-4-phenylpyridinium) in EMEM media in the presence or absence of a tested iron chelating compound. All compounds were tested at the following concentrations: 10 μM, 20 μM, and 40 μM. After 24 h of incubation, cell viability was determined with MTT ((3-(4,5-Dimethylthiazol-2-yl)-2,5-diphenyltetrazolium bromide, a yellow tetrazole) assay which measures mitochondrial activity (Carmichael et al. Cancer Research 1987, 47, 936-942). MTT solution (10 μL, 5 mg/mL) was added to the wells and incubated for 2 h. Formazan product was solubilized with 100 μL of 10% SDS (sodium dodecyl sulphate) in 0.01M HCl. Optical density was determined at 570 nm using Multiscan Ascent plate reader (Labsystems) and data collected were corrected for background signal measured at 650 nm. All data are expressed as % of control.\nCo-treatment with iron chelators protected the cells from MPP^+ toxicity.",
  "data": [
    {"smiles": "Cc1c(O)c(=O)ccn1C", "note": "[Deferiprone, 3-hydroxy-1,2-dimethylpyridin-4(1H)-one, reference compound]", "values": [
      {"measurement": "increase in cell viability", "value": "about 20%"}
    ]}
  ]
}
